Active and inactive are the calls of the source.
How the values were obtained:
[1] = inhibitors of intracellular T. cruzi replication, confirmation, NIH3T3 host cells, beta-gal luminescence (AID 2044); format: functional, cell-based;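 note: intracellular parasites grown in NIH/3T3 mouse fibroblasts as host cells; luminescent beta-galactosidase reporter signal from transgenic T. cruzi replicating inside host cells; inhibitors lower the luminescence signal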
[2] = growth suppression of PTEN-null colon cells, dose response, cell-based, HCT116 PTEN knockout (AID 1047); format: functional;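 note: HCT116 colon tumor cells with PTEN knocked out; cells exposed to compound for 60 hours before readout; potency for loss of cell viability measured by luminescence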
[3] = cytotoxicity toward NIH3T3 fibroblasts, dose response, counter-screen, cell-based, ATP luminescence, mouse fibroblasts (AID 2010); format: functional;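 note: cells exposed to compound for about 90 hours before reading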
[4] = growth suppression of beta-catenin-knockout colon cells, dose response, cell-based, HCT116, human colon tumor (AID 1045); format: functional;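 note: HCT116 colon tumor cells with beta catenin knocked out; cells exposed to compound for 60 hours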
[5] = THP-1 cell cytotoxicity, dose response, cytotoxicity control for non-replicating M. tuberculosis project (AID 489025); format: functional
[6] = Luminescence Cell-Based Dose Retest to Confirm Inhibitors of Cancer Stem Cells. [Related pubchem assays (depositor defined):AID2717, AID2721]; format: functional; conditions: Homo sapiens
[7] = HepG2 cell cytotoxicity, dose response, cytotoxicity control for non-replicating M. tuberculosis project (AID 489018); format: functional; conditions: Mycobacterium tuberculosis
[8] = Vero E6 cell cytotoxicity, dose response, cytotoxicity control for non-replicating M. tuberculosis project, secondary assay (AID 492998); format: functional, VeroE6; conditions: Vero C1008
[9] = target: T1, Microphthalmia-associated transcription factor (Homo sapiens, UniProt O75030); experiment: TRPM1 promoter luciferase signal decrease, dose response, MITF inhibitor project, cell-based, SK-MEL-5, cherry-picked, set 3 (AID 493073); format: functional
T1 sequence (O75030 whole entry): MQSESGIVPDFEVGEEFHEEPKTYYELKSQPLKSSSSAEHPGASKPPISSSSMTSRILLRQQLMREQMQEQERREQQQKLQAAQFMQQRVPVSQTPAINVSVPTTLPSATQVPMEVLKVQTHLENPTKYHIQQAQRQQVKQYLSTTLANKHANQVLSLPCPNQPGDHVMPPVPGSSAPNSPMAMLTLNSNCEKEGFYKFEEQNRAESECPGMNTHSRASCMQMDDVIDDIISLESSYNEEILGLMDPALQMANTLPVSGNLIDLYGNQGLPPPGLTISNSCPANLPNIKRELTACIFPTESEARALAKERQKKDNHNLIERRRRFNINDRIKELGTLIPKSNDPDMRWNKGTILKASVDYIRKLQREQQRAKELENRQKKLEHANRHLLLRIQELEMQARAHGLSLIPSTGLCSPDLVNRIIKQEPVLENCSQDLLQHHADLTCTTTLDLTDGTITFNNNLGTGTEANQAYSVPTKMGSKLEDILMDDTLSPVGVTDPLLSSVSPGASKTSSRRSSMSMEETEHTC

cells = format: functional
A-375 [10] = experiment: MITF: Counter assay: A375 proliferation Measured in Cell-Based System Using Plate Reader - 2084-03_Inhibitor_Dose_DryPowder_Activity. [Related pubchem assays (depositor defined):AID488944]; format: functional; conditions: Homo sapiens
INS1 = experiment: beta cell apoptosis inhibitors, cytokine rescue, dose response, luminescence, retest (AID 449756); format: functional, cell-based; conditions: Rattus norvegicus, INS1;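 note: cell death triggered by IL-1 beta plus TNF-alpha plus IFN-gamma mixture; protective hits raise ATP signal compared with cytokine alone wells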
Beta-galactosidase = Beta-galactosidase (Escherichia coli, UniProt Q8VNN2); experiment: PubChem AID 485352; format: functional
[11] = M. tuberculosis H37Rv growth inhibitors, H37Rv strain (AID 1626); format: functional
[12] = target: Type-1 angiotensin II receptor (Homo sapiens, UniProt P30556); experiment: AT1 receptor antagonists, dose response, selectivity assay for APJ receptor antagonist project, cell-based, uHTS hits (AID 463214); format: functional;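 note: antagonist potency against angiotensin II stimulated AT1 response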
[13] = target: T2, Ubiquitin-conjugating enzyme E2 N (Homo sapiens, UniProt P61088); format: functional;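 note: Dose-response confirmation in a TR-FRET assay detecting UBC13-driven polyubiquitin chain formation, inhibition measured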
T2 sequence (P61088 whole entry): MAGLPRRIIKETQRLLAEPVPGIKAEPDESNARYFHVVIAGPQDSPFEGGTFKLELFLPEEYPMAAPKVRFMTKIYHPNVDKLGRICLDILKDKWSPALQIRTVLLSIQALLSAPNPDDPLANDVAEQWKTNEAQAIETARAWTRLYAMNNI

A-375 [14] = experiment: A375 melanoma cell viability reduction, dose response, counter-screen for MITF modulator project, cherry-pick samples, set 2 (AID 540335); format: functional, cell-based; conditions: Homo sapiens
[15] = Artemis endonuclease inhibitor potency, dose response, biochemical, fluorescence intensity (AID 720701); format: functional;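 note: Artemis endonuclease enzyme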
Cytochrome P450 1A2 = target: T3, Cytochrome P450 1A2 (Homo sapiens, UniProt P05177);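 note: PubChem cytochrome P450 panel assay, CYP1A2 panel member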
T3 sequence (P05177 whole entry): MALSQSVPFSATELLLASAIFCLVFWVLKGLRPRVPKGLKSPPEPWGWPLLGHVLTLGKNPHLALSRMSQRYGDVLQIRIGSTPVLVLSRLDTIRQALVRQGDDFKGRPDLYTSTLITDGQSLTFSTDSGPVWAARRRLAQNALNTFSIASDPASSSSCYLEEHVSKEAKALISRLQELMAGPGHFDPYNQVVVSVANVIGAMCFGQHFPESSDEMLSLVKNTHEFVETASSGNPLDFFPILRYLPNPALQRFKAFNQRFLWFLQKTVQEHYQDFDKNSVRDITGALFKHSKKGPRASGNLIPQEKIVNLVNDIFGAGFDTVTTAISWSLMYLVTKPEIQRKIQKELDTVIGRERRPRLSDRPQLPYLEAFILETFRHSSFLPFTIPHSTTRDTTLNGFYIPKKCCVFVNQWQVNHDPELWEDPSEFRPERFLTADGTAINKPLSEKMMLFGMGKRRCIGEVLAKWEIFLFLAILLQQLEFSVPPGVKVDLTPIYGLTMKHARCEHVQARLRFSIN

Cytochrome P450 3A4 = Cytochrome P450 3A4 (Homo sapiens, UniProt P08684);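 note: CYP3A4 tested as one member of a cytochrome P450 panel screen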
[16] = target: T4, Heat shock factor protein 1 (Mus musculus, UniProt P38532); experiment: HSF1 potentiators in luciferase reporter cells, confirmation, cell-based, NIH3T3, luminescence, dose retest (AID 435004); format: functional;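 note: stress induced by proteasome inhibitor MG132 added 30 min after compound; luciferase reporter driven by HSF1 response element in NIH3T3 cells; actives raise luminescence as potentiators of the MG132 stress response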
T4 sequence (P38532 whole entry): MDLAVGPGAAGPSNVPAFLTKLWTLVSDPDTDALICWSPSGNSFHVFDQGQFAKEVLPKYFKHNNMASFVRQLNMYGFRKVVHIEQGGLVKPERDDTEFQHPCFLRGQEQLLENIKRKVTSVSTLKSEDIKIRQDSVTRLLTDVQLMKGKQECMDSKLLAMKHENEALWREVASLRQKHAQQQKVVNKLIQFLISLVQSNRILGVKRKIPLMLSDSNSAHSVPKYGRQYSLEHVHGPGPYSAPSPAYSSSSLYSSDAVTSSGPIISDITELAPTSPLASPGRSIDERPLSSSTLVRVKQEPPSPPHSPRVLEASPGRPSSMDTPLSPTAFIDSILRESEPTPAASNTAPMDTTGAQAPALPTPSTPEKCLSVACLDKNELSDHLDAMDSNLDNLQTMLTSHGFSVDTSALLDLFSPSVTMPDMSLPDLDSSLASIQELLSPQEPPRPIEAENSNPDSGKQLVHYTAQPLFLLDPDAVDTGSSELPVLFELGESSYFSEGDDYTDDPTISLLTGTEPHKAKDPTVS

[17] = HepG2 cell cytotoxicity, dose response, cytotoxicity control, ATP luminescence, cherry-pick, activator set 2 (AID 1053143); format: functional, cell-based
[18] = target: Intestinal-type alkaline phosphatase (Mus musculus, UniProt P24822); experiment: PubChem AID 488874; format: functional
[19] = target: T5, Intestinal-type alkaline phosphatase (Homo sapiens, UniProt P09923); experiment: human intestinal alkaline phosphatase activators, dose response, biochemical, luminescence, uHTS hits (AID 463120); format: functional
[20] = target: T5, Intestinal-type alkaline phosphatase; experiment: human IAP activators, dose response, biochemical, luminescent, uHTS hits, set 2 (AID 488817); format: functional;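 note: potency of activators that raise enzyme activity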
[21] = target: T6, Alkaline phosphatase, tissue-nonspecific isozyme (Homo sapiens, UniProt P05186); experiment: TNAP enzyme activators, dose response, selectivity assay for human IAP activator project, biochemical, TNAP isozyme, human IAP uHTS hits (AID 488886); format: functional;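 note: potency of compounds raising TNAP activity as a selectivity check on IAP activators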
T6 sequence (P05186 whole entry): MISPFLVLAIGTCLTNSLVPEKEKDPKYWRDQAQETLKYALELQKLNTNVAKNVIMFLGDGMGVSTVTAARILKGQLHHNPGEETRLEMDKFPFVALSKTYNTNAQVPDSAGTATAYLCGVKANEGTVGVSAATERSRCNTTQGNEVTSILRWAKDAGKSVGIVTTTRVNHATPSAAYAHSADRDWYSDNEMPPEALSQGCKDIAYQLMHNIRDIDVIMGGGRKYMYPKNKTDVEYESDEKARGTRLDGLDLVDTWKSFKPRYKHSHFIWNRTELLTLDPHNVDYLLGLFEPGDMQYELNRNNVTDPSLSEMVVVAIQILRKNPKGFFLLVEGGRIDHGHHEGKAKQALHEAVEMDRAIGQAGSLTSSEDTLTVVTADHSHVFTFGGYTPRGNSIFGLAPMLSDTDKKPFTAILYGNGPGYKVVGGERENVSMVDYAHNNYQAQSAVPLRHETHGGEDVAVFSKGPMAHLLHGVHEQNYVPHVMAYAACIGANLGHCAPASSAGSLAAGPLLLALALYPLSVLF

Chain of Beta-galactosidase (Q8VNN2 whole entry): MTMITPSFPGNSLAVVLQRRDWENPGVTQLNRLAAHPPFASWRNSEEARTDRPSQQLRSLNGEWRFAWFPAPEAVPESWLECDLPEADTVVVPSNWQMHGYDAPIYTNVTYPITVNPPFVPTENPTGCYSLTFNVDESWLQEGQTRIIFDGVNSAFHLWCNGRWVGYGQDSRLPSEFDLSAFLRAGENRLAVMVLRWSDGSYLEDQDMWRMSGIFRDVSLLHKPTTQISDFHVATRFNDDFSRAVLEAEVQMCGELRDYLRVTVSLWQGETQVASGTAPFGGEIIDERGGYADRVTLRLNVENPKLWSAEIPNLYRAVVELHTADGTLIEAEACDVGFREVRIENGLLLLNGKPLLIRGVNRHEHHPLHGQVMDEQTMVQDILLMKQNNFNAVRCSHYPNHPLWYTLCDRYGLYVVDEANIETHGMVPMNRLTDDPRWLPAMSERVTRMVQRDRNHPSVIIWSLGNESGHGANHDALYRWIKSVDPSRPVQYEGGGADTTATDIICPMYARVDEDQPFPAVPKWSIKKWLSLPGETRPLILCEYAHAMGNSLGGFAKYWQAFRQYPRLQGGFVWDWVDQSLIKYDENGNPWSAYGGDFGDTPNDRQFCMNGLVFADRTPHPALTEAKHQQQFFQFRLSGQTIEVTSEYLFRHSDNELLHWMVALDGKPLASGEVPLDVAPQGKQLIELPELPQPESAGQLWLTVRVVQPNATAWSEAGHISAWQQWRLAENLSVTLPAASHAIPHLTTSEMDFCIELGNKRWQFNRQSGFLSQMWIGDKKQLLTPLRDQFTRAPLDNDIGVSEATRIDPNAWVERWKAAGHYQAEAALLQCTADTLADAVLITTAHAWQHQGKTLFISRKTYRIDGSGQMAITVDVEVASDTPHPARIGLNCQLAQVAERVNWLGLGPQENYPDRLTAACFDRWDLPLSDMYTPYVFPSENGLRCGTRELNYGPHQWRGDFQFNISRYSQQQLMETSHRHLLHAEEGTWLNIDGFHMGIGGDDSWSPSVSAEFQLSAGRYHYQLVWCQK
Chain of Type-1 angiotensin II receptor (P30556 whole entry): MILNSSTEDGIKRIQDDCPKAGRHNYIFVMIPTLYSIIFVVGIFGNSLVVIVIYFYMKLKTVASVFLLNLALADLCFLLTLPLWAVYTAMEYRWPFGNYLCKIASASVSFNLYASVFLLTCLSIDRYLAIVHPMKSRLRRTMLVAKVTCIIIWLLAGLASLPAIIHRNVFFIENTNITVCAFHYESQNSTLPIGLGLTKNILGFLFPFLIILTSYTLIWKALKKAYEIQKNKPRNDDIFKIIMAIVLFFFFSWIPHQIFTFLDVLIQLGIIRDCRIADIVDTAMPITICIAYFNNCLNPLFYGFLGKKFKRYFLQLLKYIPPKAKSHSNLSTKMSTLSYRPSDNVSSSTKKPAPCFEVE
T5 sequence (P09923 whole entry): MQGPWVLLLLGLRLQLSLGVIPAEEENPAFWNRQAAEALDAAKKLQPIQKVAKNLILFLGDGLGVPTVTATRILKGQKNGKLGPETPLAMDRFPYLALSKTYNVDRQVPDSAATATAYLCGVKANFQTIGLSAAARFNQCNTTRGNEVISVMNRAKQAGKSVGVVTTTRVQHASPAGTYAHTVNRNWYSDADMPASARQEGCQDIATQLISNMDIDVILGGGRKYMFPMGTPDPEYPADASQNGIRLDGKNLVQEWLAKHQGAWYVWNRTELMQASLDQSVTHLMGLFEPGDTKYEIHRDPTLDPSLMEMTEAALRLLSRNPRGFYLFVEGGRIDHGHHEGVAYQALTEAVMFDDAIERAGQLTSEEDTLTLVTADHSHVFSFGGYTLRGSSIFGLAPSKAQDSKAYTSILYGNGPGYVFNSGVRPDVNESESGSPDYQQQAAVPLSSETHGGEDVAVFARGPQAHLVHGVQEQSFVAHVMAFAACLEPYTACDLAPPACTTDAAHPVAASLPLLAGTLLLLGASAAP
Chain of Cytochrome P450 3A4 (P08684 whole entry): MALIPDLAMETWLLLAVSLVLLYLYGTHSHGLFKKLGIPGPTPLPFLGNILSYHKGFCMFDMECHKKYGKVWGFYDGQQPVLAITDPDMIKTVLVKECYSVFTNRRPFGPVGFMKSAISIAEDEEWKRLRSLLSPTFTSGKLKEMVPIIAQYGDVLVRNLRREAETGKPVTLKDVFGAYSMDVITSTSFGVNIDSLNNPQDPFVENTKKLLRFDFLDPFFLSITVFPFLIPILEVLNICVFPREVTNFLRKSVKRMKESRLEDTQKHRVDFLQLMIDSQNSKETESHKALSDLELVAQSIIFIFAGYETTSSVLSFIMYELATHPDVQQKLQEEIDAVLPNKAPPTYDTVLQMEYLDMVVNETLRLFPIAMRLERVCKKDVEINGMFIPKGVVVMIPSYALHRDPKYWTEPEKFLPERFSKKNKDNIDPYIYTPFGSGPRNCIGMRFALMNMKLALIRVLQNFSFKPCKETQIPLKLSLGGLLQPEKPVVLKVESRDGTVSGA
Chain of Intestinal-type alkaline phosphatase (Mus musculus, UniProt P24822) (P24822 whole entry): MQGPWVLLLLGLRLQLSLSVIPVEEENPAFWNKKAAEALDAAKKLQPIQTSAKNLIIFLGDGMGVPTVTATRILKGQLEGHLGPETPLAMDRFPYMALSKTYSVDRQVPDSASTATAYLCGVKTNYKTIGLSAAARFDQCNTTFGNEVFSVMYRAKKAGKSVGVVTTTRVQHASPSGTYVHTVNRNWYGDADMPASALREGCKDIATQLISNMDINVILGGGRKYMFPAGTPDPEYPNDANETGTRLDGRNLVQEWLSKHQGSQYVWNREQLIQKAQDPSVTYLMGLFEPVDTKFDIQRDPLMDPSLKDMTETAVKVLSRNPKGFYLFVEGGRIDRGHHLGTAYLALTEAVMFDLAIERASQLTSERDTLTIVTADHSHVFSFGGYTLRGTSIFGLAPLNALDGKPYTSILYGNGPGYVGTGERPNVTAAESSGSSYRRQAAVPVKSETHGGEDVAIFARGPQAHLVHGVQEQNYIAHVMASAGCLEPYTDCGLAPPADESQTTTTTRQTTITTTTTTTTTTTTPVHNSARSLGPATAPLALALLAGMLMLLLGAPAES

COc1cc(CNC2CCCC2)cc(Cl)c1OCc1ccccc1Cl
EC50 [1]: 1.17 µM (active)
EC50 [2]: 14.6 µM (active)
EC50 [3]: 13.8 µM (active)
EC50 [4]: 12.1 µM (active)
CC50 [5]: 18.3 µM (active)
AC50 [6]: 5.89 µM (active)
CC50 [7]: 19.1 µM (active)
CC50 [8]: > 20 µM (active)
AC50 [9]: 17.7 µM (active)
IC50 (cells): 16.8 µM (active)
AC50 (A-375 [10]): 17.5 µM (active)
AC50 (INS1): 7.36 µM (active)

Cc1ccc(C(=O)CNc2ccc(C)c(Cl)c2)cc1
EC50 (Beta-galactosidase): > 40 µM (inactive)
IC50 [11]: > 100 µM (active)
IC50 [12]: 5.43 µM (active)

COc1ccc(C[C@H]2CN3C(=NC[C@@H]3C(C)C)N2CCNC(=O)c2ccc(C)c(Br)c2)cc1
IC50 [13]: > 20 µM (inactive)
AC50 (A-375 [14]): 34.3 µM (active)

CCN1CCc2nc(NC(=O)CC(c3ccccc3)c3ccccc3)sc2C1
IC50 [15]: 9.25 µM (active)
AC50 (Cytochrome P450 1A2): 15.8 µM (inconclusive)
AC50 (Cytochrome P450 3A4): inconclusive

CCOc1cccc(/C=C/c2ccc3cccc(O)c3n2)c1OC
EC50 (Beta-galactosidase): > 40 µM (inactive)
EC50 [1]: 2.48 µM (active)
IC50 [12]: 16.6 µM (active)
EC50 [3]: 4.48 µM (active)
EC50 [16]: 27.7 µM (active)
AC50 [17]: 26 µM (active)

Cc1ccc(S(=O)(=O)NCCC(=O)NNC(=O)COc2ccc(Br)cc2)cc1C
IC50 [18]: 89.4 µM (active)
EC50 [19]: 11.5 µM (active)
EC50 [20]: 16 µM (active)
EC50 [21]: 16.4 µM (active)

C#Cc1cccc(NC(=O)CSc2nnc(-c3ccc(C(F)(F)F)cn3)o2)c1
AC50 (A-375 [10]): > 11 µM (active)
AC50 (A-375 [14]): > 11 µM (active)

Source: ChEMBL document CHEMBL1201862, “PubChem BioAssay data set” (2004)
